Results from ChEMBL document CHEMBL2407043, “Hydantoin based inhibitors of MMP13--discovery of AZD6605” (Bioorg Med Chem Lett, 2013).
In brackets after ≈: the same amount, converted by molar mass. Values belong to the molecule of their own block, whether it stands above or below them.

Legend:
[1] = Thermodynamic solubility of the compound in phosphate buffer at pH 7.4 at 25 degC after 24 hrs; details: read-out: Therm_solubility
[2] = Volume of distribution at steady state in rat at 2 mg/kg, iv and 5 mg/kg, po; assay type: ADME, organism-based; details: in vivo, read-out: Vdss
[3] = Volume of distribution at steady state in dog at 0.5 mg/kg, iv and 1 mg/kg, po; assay type: ADME, organism-based, Canis lupus familiaris; details: in vivo, read-out: Vdss
[4] = Oral bioavailability in rat at 5 mg/kg; assay type: ADME, organism-based; details: in vivo
[5] = target: T1, Cytochrome P450 1A2 (Homo sapiens, UniProt P05177); test: Inhibition of human CYP1A2; assay type: ADME
T1 sequence (P05177 whole entry): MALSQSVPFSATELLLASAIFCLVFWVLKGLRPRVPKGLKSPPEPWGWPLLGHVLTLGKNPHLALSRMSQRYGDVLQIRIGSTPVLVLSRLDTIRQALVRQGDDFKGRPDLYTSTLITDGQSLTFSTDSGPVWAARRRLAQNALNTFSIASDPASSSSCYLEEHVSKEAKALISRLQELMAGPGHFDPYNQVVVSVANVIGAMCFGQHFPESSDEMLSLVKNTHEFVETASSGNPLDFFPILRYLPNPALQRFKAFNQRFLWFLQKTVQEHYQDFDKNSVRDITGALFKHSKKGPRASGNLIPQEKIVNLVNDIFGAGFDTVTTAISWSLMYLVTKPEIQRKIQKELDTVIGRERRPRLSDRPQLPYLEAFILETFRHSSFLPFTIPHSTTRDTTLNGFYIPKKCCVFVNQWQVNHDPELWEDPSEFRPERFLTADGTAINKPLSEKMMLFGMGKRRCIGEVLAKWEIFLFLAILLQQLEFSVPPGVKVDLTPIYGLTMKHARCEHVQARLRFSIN

[6] = Half life in dog at 0.5 mg/kg, iv and 1 mg/kg, po; assay type: ADME, organism-based, Canis lupus familiaris; details: in vivo
[7] = Oral bioavailability in dog at 1 mg/kg; assay type: ADME, organism-based, Canis lupus familiaris; details: in vivo
[8] = target: Cytochrome P450 2C9 (Homo sapiens, UniProt P11712); test: Inhibition of human CYP2C9; assay type: ADME
[9] = Clearance in rat at 2 mg/kg, iv and 5 mg/kg, po; assay type: ADME, organism-based; details: in vivo
[10] = target: Cytochrome P450 2D6 (Homo sapiens, UniProt P10635); test: Inhibition of human CYP2D6; assay type: ADME
[11] = target: Cytochrome P450 2C19 (Homo sapiens, UniProt P33261); test: Inhibition of human CYP2C19; assay type: ADME
[12] = Clearance in dog at 0.5 mg/kg, iv and 1 mg/kg, po; assay type: ADME, organism-based, Canis lupus familiaris; details: in vivo
[13] = Half life in rat at 2 mg/kg, iv and 5 mg/kg, po; assay type: ADME, organism-based; details: in vivo
[14] = target: Cytochrome P450 3A4 (Homo sapiens, UniProt P08684); test: Inhibition of human CYP3A4; assay type: ADME
[15] = target: Matrix metalloproteinase-14 (Homo sapiens, UniProt P50281)
[16] = Half life in rat; assay type: ADME, organism-based; details: in vivo
[17] = Clearance in rat at 2 mg/kg, iv; assay type: ADME, organism-based; parameters: dose 2 mg/kg, route intravenous; details: in vivo
[18] = in vitro; details: human, liver microsomes
[19] = Elimination half life in mouse; assay type: ADME, organism-based; details: in vivo, read-out: beta t1/2 (converted)
[20] = Oral bioavailability in rat at 3 to 10 mg/kg; assay type: ADME, organism-based; details: in vivo
[21] = Elimination half life in dog; assay type: ADME, organism-based, Canis lupus familiaris; details: in vivo, read-out: beta t1/2 (converted)
[22] = Elimination half life in rat; assay type: ADME, organism-based; details: in vivo, read-out: beta t1/2 (converted)
[23] = target: Macrophage metalloelastase (Homo sapiens, UniProt P39900); test: Inhibition of MMP-12 (unknown origin) by fluorescence assay
[24] = Intrinsic clearance in dog liver microsomes; assay type: ADME, Canis lupus familiaris, Microsome; details: read-out: CLH
[25] = Intrinsic clearance in rat liver microsomes; assay type: ADME, Microsome; details: read-out: CLH

Macrophage metalloelastase, sequence (P39900 whole entry): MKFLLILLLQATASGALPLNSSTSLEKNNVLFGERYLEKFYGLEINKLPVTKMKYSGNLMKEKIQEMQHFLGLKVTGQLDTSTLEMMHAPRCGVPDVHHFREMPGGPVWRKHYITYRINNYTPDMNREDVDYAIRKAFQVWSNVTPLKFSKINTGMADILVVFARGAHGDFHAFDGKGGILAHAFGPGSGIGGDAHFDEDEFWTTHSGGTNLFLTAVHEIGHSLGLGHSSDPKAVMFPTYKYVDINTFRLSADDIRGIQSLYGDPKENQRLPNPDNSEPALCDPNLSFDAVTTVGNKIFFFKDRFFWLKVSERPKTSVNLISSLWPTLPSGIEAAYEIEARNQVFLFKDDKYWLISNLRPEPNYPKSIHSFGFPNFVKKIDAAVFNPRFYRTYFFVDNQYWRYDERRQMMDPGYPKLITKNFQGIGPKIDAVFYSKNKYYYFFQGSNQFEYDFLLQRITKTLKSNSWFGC
Cytochrome P450 3A4, sequence (P08684 whole entry): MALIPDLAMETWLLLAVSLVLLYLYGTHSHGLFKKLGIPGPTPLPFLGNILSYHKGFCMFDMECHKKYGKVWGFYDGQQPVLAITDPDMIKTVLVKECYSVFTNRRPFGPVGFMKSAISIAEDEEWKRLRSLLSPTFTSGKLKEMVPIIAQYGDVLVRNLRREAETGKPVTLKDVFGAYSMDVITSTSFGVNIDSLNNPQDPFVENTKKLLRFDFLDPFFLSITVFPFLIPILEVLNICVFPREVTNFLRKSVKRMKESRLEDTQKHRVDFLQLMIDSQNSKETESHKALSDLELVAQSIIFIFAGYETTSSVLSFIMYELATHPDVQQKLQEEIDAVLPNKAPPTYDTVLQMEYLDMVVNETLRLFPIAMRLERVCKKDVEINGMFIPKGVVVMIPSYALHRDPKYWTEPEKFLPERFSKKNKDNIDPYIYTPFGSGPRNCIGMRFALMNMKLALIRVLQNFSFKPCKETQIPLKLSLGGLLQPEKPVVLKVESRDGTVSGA
Cytochrome P450 2C9, sequence (P11712 whole entry): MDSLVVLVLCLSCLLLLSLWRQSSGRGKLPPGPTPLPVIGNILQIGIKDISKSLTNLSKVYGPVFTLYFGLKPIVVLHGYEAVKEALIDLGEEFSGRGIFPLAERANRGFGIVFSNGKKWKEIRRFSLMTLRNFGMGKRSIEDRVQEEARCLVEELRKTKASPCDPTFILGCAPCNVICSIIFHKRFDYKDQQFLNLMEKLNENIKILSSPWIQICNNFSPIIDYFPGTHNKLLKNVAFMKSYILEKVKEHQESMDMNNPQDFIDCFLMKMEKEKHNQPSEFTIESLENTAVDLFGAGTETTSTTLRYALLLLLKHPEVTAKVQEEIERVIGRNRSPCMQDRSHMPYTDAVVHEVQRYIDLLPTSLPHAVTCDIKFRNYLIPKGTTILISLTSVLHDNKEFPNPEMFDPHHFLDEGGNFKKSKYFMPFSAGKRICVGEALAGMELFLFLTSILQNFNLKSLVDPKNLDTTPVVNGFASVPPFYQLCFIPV
Cytochrome P450 2D6, sequence (P10635 whole entry): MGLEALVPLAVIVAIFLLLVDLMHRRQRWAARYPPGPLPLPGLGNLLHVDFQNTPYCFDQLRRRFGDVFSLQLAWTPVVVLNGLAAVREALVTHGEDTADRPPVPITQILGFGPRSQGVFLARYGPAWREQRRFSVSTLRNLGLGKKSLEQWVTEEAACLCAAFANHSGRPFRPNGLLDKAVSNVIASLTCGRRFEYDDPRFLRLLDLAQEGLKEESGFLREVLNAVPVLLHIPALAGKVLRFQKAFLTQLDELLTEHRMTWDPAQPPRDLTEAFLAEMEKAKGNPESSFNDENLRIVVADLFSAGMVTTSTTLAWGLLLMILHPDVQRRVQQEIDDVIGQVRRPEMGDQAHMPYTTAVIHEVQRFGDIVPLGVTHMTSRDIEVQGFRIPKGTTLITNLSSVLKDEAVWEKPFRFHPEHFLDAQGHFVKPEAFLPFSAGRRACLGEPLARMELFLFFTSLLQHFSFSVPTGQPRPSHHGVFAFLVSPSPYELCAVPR
Cytochrome P450 2C19, sequence (P33261 whole entry): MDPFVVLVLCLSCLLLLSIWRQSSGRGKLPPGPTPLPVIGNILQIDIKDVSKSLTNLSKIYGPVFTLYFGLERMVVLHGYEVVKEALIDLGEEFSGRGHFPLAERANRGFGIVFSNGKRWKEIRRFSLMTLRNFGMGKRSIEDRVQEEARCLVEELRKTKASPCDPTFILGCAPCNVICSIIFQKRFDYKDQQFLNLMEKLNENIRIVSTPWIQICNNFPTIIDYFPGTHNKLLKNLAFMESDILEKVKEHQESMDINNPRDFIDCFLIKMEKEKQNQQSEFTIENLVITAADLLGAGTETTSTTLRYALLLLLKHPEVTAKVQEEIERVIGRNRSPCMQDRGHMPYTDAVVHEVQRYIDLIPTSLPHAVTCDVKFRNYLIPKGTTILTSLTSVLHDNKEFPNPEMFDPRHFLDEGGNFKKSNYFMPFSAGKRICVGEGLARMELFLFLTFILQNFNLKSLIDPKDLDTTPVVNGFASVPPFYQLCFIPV

IC50 [15]: 1.86 µM
Structure (SMILES): C[C@]1(CS(=O)(=O)N2CCC(Oc3ccc(OCc4ccc(C(F)(F)F)o4)cc3)CC2)NC(=O)NC1=O

solubility thermodynamic at 24 h [1]: 52 µM (≈ 20 µg/mL)
IC50 [23]: 0.0237 µM
Structure (SMILES): C[C@]1(CS(=O)(=O)N2CCC(Oc3ccc(F)cc3)CC2)NC(=O)NC1=O

solubility thermodynamic at 24 h [1]: 15 µM (≈ 6.17 µg/mL)
IC50 [23]: 0.002 µM
IC50 [15]: 2.82 µM
Structure (SMILES): CCOc1ccc(OC2CCN(S(=O)(=O)C[C@@]3(C)NC(=O)NC3=O)CC2)cc1

solubility thermodynamic at 24 h [1]: 18 µM (≈ 8.13 µg/mL)
IC50 [23]: 0.0033 µM
IC50 [15]: 9.5 µM
Structure (SMILES): C[C@]1(CS(=O)(=O)N2CCC(Oc3ccc(OC(F)(F)F)cc3)CC2)NC(=O)NC1=O

solubility thermodynamic at 24 h [1]: 34 µM (≈ 15.8 µg/mL)
IC50 [15]: 1.95 µM
Structure (SMILES): C[C@]1(CS(=O)(=O)N2CCC(Oc3ccc(OCC(F)(F)F)cc3)CC2)NC(=O)NC1=O

solubility thermodynamic at 24 h [1]: 110 µM (≈ 52.7 µg/mL)
IC50 [15]: 3.12 µM
Structure (SMILES): C[C@]1(CS(=O)(=O)N2CCC(Oc3ccc(OCCC(F)(F)F)cc3)CC2)NC(=O)NC1=O

solubility thermodynamic at 24 h [1]: 4.4 µM (≈ 2.27 µg/mL)
IC50 [15]: 4.74 µM
Structure (SMILES): C[C@]1(CS(=O)(=O)N2CCC(Oc3ccc(OCC(F)(F)C(F)(F)F)cc3)CC2)NC(=O)NC1=O

solubility thermodynamic at 24 h [1]: 32 µM (≈ 15.9 µg/mL)
IC50 [15]: 0.553 µM
Structure (SMILES): C[C@]1(CS(=O)(=O)N2CCC(Oc3ccc(OCC(F)(F)C(F)F)cc3)CC2)NC(=O)NC1=O

solubility thermodynamic at 24 h [1]: < 2 µM
IC50 [15]: > 10 µM
Structure (SMILES): C[C@]1(CS(=O)(=O)N2CCC(Oc3ccc(OC(F)(F)C(F)(F)F)cc3)CC2)NC(=O)NC1=O

solubility thermodynamic at 24 h [1]: 23 µM (≈ 10 µg/mL)
IC50 [5]: > 40 µM
IC50 [8]: > 40 µM
microsomal CLint [18]: < 10 µL/min/mg
IC50 [23]: 0.0059 µM
IC50 [10]: > 40 µM
IC50 [11]: > 40 µM
microsomal CLint [24]: < 10 µL/min/mg
IC50 [14]: > 40 µM
microsomal CLint [25]: < 10 µL/min/mg
Structure (SMILES): C[C@]1(CS(=O)(=O)N2CCC(Oc3ccc(C(F)(F)F)cc3)CC2)NC(=O)NC1=O

Continued, molecule first:

Structure (SMILES): C[C@]1(CS(=O)(=O)N2CCC(Oc3ccc(OCc4cccnc4)cc3)CC2)NC(=O)NC1=O
solubility thermodynamic at 24 h [1]: 8.4 µM (≈ 3.99 µg/mL)

Structure (SMILES): C[C@]1(CS(=O)(=O)N2CCC(Oc3ccc(OCc4ccccn4)cc3)CC2)NC(=O)NC1=O
Vd [2]: 0.8 L/kg
Vd [3]: 0.6 L/kg
bioavailability [4]: 35%
solubility thermodynamic at 24 h [1]: 20 µM (≈ 9.49 µg/mL)
IC50 [5]: > 10 µM
half-life [6]: 2.3 h
bioavailability [7]: 51%
IC50 [8]: > 10 µM
clearance [9]: 17 mL/min/kg
IC50 [10]: > 10 µM
IC50 [11]: > 10 µM
clearance [12]: 3 mL/min/kg
half-life [13]: 2.5 h
IC50 [14]: > 10 µM
IC50 [15]: 6.9 µM

Structure (SMILES): C[C@]1(CS(=O)(=O)N2CCC(Oc3ccc(OCc4cscn4)cc3)CC2)NC(=O)NC1=O
solubility thermodynamic at 24 h [1]: 87 µM (≈ 41.8 µg/mL)
IC50 [15]: 4.09 µM

Structure (SMILES): C[C@]1(CS(=O)(=O)N2CCC(Oc3ccc(OCc4cnsn4)cc3)CC2)NC(=O)NC1=O
solubility thermodynamic at 24 h [1]: 28 µM (≈ 13.5 µg/mL)
IC50 [15]: 0.35 µM

Structure (SMILES): C[C@]1(CS(=O)(=O)N2CCN(c3ncc(OCc4ccc(F)cc4)cn3)CC2)NC(=O)NC1=O
Vd [2]: 0.5 L/kg
half-life [16]: 1.9 h
solubility thermodynamic at 24 h [1]: 16 µM (≈ 7.66 µg/mL)
clearance [17]: 4.8 mL/min/kg
microsomal CLint [18]: 16 µL/min/mg

Structure (SMILES): C[C@]1(CS(=O)(=O)N2CCN(c3ncc(OCc4cccc(C#N)c4)cn3)CC2)NC(=O)NC1=O
Vd [2]: 0.5 L/kg
half-life [16]: 7.5 h
solubility thermodynamic at 24 h [1]: 66 µM (≈ 32 µg/mL)
clearance [17]: 18.1 mL/min/kg
microsomal CLint [18]: < 2 µL/min/mg
half-life [19]: 5.8 h
bioavailability [20]: 51%
half-life [21]: 5.4 h
half-life [22]: 7.5 h

Structure (SMILES): C[C@]1(CS(=O)(=O)N2CCN(c3ncc(OCc4ccc(S(C)(=O)=O)cc4)cn3)CC2)NC(=O)NC1=O
solubility thermodynamic at 24 h [1]: 1 µM (≈ 0.539 µg/mL)

Structure (SMILES): C[C@]1(CS(=O)(=O)N2CCC(Oc3ccc(Cl)cc3)CC2)NC(=O)NC1=O
solubility thermodynamic at 24 h [1]: 12 µM (≈ 4.82 µg/mL)
IC50 [23]: 0.0089 µM
